Numbers after ± are expanded uncertainties.
Test: molar heat capacity at constant pressure
Details: 101.33 kPa, Liquid, DSC

CCCCCCCC[n+]1ccn(C)c1.F[P-](F)(F)(F)(F)F [1-octyl-3-methylimidazolium hexafluorophosphate]
Details	molar heat capacity at constant pressure [J/K/mol]
253.15 K	549.23 ± 21
258.15 K	551.95 ± 21
263.15 K	554.33 ± 21
268.15 K	556.71 ± 21
273.15 K	559.77 ± 22
278.15 K	562.84 ± 22
283.15 K	566.92 ± 22
288.15 K	570.32 ± 22
293.15 K	573.73 ± 22
298.15 K	577.47 ± 22
303.15 K	580.53 ± 22
308.15 K	584.28 ± 23
313.15 K	587.34 ± 23
318.15 K	590.4 ± 23
323.15 K	593.46 ± 23
328.15 K	597.21 ± 23
333.15 K	600.27 ± 23
338.15 K	602.99 ± 23
343.15 K	606.05 ± 23
348.15 K	608.78 ± 23
353.15 K	611.84 ± 24
358.15 K	614.22 ± 24
363.15 K	617.28 ± 24
368.15 K	620.01 ± 24
373.15 K	622.39 ± 24
378.15 K	625.45 ± 24
383.15 K	628.17 ± 24
388.15 K	630.55 ± 25
393.15 K	633.28 ± 25
398.15 K	636.68 ± 25
403.15 K	639.74 ± 25
408.15 K	643.83 ± 25
413.15 K	646.89 ± 25
